Where “and” joins values, the source holds several entries; their conditions need not be identical. Identical values can stand only once.
Molecular target: T1, human TAS2R4 (Homo sapiens, UniProt Q9NYW5)
T1 construct: expressed in transfected cells; host or cells: HEK293T-Gα16gust44
T1 sequence (Q9NYW5 1-299): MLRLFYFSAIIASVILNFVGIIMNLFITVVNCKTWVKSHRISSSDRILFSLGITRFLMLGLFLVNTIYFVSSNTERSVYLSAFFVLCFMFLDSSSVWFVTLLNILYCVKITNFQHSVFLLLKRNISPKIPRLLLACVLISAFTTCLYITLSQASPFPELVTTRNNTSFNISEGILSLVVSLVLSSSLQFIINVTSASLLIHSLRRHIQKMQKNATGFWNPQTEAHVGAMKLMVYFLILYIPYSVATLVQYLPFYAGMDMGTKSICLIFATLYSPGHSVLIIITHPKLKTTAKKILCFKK
Assay: Calcium imaging assay (FLIPR), HEK293T-Gα16gust44 cells transfected with human TAS2R4
Assay type: cell-based
Procedure, shortened: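 HEK293T-Gα16gust44 cells transiently transfected with the bitter-taste receptor, loaded next day with Fluo-4-AM plus 2.5 mM probenecid, and challenged with bile acids on FLIPR Tetra. Signals mock-subtracted, expressed as ΔF/F vs buffer.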

## C[C@H](CCC(=O)NCCS(=O)(=O)O)[C@H]1CC[C@H]2[C@@H]3CC[C@@H]4C[C@H](O)CC[C@]4(C)[C@H]3CC[C@]12C [Taurolithocholic Acid, taurolithocholic acid]
TAS2R4, bile acids, mean
  Efficacy = maximal amplitude (ΔF/F): 0.1385
TAS2R4, bile acids, single replicates, listed as TLCA
  Efficacy (maximal amplitude ΔF/F), individual data points: 0.1344 and 0.1516 and 0.119 and 0.1444 and 0.143
Time (s) 0
  RLU, fluorescence trace: 0 RLU
Time (s) 2
  RLU, fluorescence trace: -14.866 RLU
Time (s) 4
  RLU, fluorescence trace: -10.9022 RLU
Time (s) 6
  RLU, fluorescence trace: -0.9261 RLU
Time (s) 8
  RLU, fluorescence trace: -7.834 RLU
Time (s) 12
  RLU, fluorescence trace: -12.8379 RLU
Time (s) 14
  RLU, fluorescence trace: 6.067 RLU
Time (s) 16
  RLU, fluorescence trace: 3.969 RLU
Time (s) 18
  RLU, fluorescence trace: -13.8081 RLU
Time (s) 18.766 (TCA, TLCA: 18.782)
  RLU, fluorescence trace: -6.318 RLU
Time (s) 20.781 (TCA, TLCA: 20.782)
  RLU, fluorescence trace: 0.7554 RLU
Time (s) 22.781 (TCA, TLCA: 22.782)
  RLU, fluorescence trace: 22.9324 RLU
Time (s) 24.781 (TCA, TLCA: 24.782)
  RLU, fluorescence trace: 4.9 RLU
Time (s) 26.781 (TCA, TLCA: 26.782)
  RLU, fluorescence trace: 24.977 RLU
Time (s) 28.781 (TCA, TLCA: 28.782)
  RLU, fluorescence trace: 22.993 RLU
Time (s) 30.781 (TCA, TLCA: 30.782)
  RLU, fluorescence trace: 49.0114 RLU
Time (s) 32.781 (TCA, TLCA: 32.782)
  RLU, fluorescence trace: 81.1426 RLU
Time (s) 34.781 (TCA, TLCA: 34.782)
  RLU, fluorescence trace: 109.126 RLU
Time (s) 36.781 (TCA, TLCA: 36.782)
  RLU, fluorescence trace: 126.942 RLU
Time (s) 38.781 (TCA, TLCA: 38.782)
  RLU, fluorescence trace: 159.412 RLU
Time (s) 40.781 (TCA, TLCA: 40.782)
  RLU, fluorescence trace: 175 RLU
Time (s) 42.781 (TCA, TLCA: 42.782)
  RLU, fluorescence trace: 193.772 RLU
Time (s) 44.781 (TCA, TLCA: 44.782)
  RLU, fluorescence trace: 218.413 RLU
Time (s) 46.781 (TCA, TLCA: 46.782)
  RLU, fluorescence trace: 198.067 RLU
Time (s) 48.781 (TCA, TLCA: 48.782)
  RLU, fluorescence trace: 224.737 RLU
Time (s) 50.781 (TCA, TLCA: 50.782)
  RLU, fluorescence trace: 242.508 RLU
Time (s) 52.781 (TCA, TLCA: 52.782)
  RLU, fluorescence trace: 256.995 RLU
Time (s) 54.781 (TCA, TLCA: 54.782)
  RLU, fluorescence trace: 227.079 RLU
Time (s) 56.781 (TCA, TLCA: 56.782)
  RLU, fluorescence trace: 225.961 RLU
Time (s) 58.781 (TCA, TLCA: 58.782)
  RLU, fluorescence trace: 271.056 RLU
Time (s) 60.781 (TCA, TLCA: 60.782)
  RLU, fluorescence trace: 261.6 RLU
Time (s) 62.781 (TCA, TLCA: 62.782)
  RLU, fluorescence trace: 251.574 RLU
Time (s) 64.781 (TCA, TLCA: 64.782)
  RLU, fluorescence trace: 292.569 RLU
Time (s) 66.781 (TCA, TLCA: 66.782)
  RLU, fluorescence trace: 280.396 RLU
Time (s) 68.781 (TCA, TLCA: 68.782)
  RLU, fluorescence trace: 265.03 RLU
Time (s) 70.781 (TCA, TLCA: 70.782)
  RLU, fluorescence trace: 284.572 RLU
Time (s) 72.781 (TCA, TLCA: 72.782)
  RLU, fluorescence trace: 284.878 RLU
Time (s) 74.781 (TCA, TLCA: 74.782)
  RLU, fluorescence trace: 290.176 RLU
Time (s) 76.781 (TCA, TLCA: 76.782)
  RLU, fluorescence trace: 292.885 RLU
Time (s) 78.781 (TCA, TLCA: 78.782)
  RLU, fluorescence trace: 302.496 RLU
Time (s) 80.781 (TCA, TLCA: 80.782)
  RLU, fluorescence trace: 299.577 RLU
Time (s) 82.781 (TCA, TLCA: 82.782)
  RLU, fluorescence trace: 289.637 RLU
Time (s) 84.781 (TCA, TLCA: 84.782)
  RLU, fluorescence trace: 284.791 RLU
Time (s) 86.781 (TCA, TLCA: 86.782)
  RLU, fluorescence trace: 284.228 RLU
Time (s) 88.781 (TCA, TLCA: 88.782)
  RLU, fluorescence trace: 289.096 RLU
Time (s) 90.781 (TCA, TLCA: 90.782)
  RLU, fluorescence trace: 288.658 RLU
Time (s) 92.781 (TCA, TLCA: 92.782)
  RLU, fluorescence trace: 295.597 RLU
Time (s) 94.781 (TCA, TLCA: 94.782)
  RLU, fluorescence trace: 300.252 RLU
Time (s) 96.781 (TCA, TLCA: 96.782)
  RLU, fluorescence trace: 303.134 RLU
Time (s) 98.781 (TCA, TLCA: 98.782)
  RLU, fluorescence trace: 268.467 RLU
Time (s) 100.781 (TCA, TLCA: 100.782)
  RLU, fluorescence trace: 282.827 RLU
Time (s) 102.781 (TCA, TLCA: 102.782)
  RLU, fluorescence trace: 280.287 RLU
Time (s) 104.781 (TCA, TLCA: 104.782)
  RLU, fluorescence trace: 297.596 RLU
Time (s) 106.781 (TCA, TLCA: 106.782)
  RLU, fluorescence trace: 261.785 RLU
Time (s) 108.781 (TCA, TLCA: 108.782)
  RLU, fluorescence trace: 279.776 RLU
Time (s) 110.781 (TCA, TLCA: 110.782)
  RLU, fluorescence trace: 253.834 RLU
Time (s) 112.781 (TCA, TLCA: 112.782)
  RLU, fluorescence trace: 272.21 RLU
Time (s) 114.781 (TCA, TLCA: 114.782)
  RLU, fluorescence trace: 268.219 RLU
Time (s) 116.781 (TCA, TLCA: 116.782)
  RLU, fluorescence trace: 268.998 RLU
Time (s) 118.781 (TCA, TLCA: 118.782)
  RLU, fluorescence trace: 262.891 RLU
Time (s) 120.781 (TCA, TLCA: 120.782)
  RLU, fluorescence trace: 267.293 RLU
Time (s) 122.781 (TCA, TLCA: 122.782)
  RLU, fluorescence trace: 280.896 RLU
Time (s) 124.781 (TCA, TLCA: 124.782)
  RLU, fluorescence trace: 273.898 RLU
Time (s) 126.781 (TCA, TLCA: 126.782)
  RLU, fluorescence trace: 249.374 RLU
Time (s) 128.781 (TCA, TLCA: 128.782)
  RLU, fluorescence trace: 270.269 RLU
Time (s) 130.781 (TCA, TLCA: 130.782)
  RLU, fluorescence trace: 267.674 RLU
Time (s) 132.781 (TCA, TLCA: 132.782)
  RLU, fluorescence trace: 259.914 RLU
Time (s) 134.781 (TCA, TLCA: 134.782)
  RLU, fluorescence trace: 243.112 RLU
Time (s) 136.781 (TCA, TLCA: 136.782)
  RLU, fluorescence trace: 250.545 RLU
Time (s) 137.547
  RLU, fluorescence trace: 251.257 RLU
Time (s) 143.547
  RLU, fluorescence trace: 215.734 RLU
Time (s) 149.547
  RLU, fluorescence trace: 237.866 RLU
Time (s) 155.547
  RLU, fluorescence trace: 193.672 RLU
Time (s) 161.547
  RLU, fluorescence trace: 207.578 RLU
Time (s) 167.547
  RLU, fluorescence trace: 205.902 RLU
Time (s) 173.547
  RLU, fluorescence trace: 204.036 RLU
Time (s) 179.547
  RLU, fluorescence trace: 180.442 RLU
Time (s) 185.547
  RLU, fluorescence trace: 185.763 RLU
Time (s) 191.547
  RLU, fluorescence trace: 137.563 RLU
Time (s) 197.547
  RLU, fluorescence trace: 147.254 RLU
Time (s) 203.547
  RLU, fluorescence trace: 133.472 RLU
Time (s) 209.547
  RLU, fluorescence trace: 90.5191 RLU
Time (s) 215.547
  RLU, fluorescence trace: 65.3811 RLU
Time (s) 221.547
  RLU, fluorescence trace: 77.9879 RLU
Time (s) 227.547
  RLU, fluorescence trace: 99.7214 RLU
Time (s) 233.547
  RLU, fluorescence trace: 126.783 RLU
Time (s) 239.547
  RLU, fluorescence trace: 132.165 RLU
Time (s) 245.547
  RLU, fluorescence trace: 104.275 RLU
Time (s) 293.547
  RLU, fluorescence trace: 136.191 RLU
Time (s) 299.547
  RLU, fluorescence trace: 118.82 RLU
Time (s) 305.547
  RLU, fluorescence trace: 140.647 RLU
Time (s) 311.547
  RLU, fluorescence trace: 122.148 RLU
Time (s) 317.547
  RLU, fluorescence trace: 88.8315 RLU
Time (s) 323.547
  RLU, fluorescence trace: 111.642 RLU
Time (s) 329.547
  RLU, fluorescence trace: 124.756 RLU
Time (s) 335.547
  RLU, fluorescence trace: 109.477 RLU
Time (s) 341.547
  RLU, fluorescence trace: 98.825 RLU
Time (s) 347.547
  RLU, fluorescence trace: 92.346 RLU
Time (s) 353.547
  RLU, fluorescence trace: 124.878 RLU
Time (s) 359.547
  RLU, fluorescence trace: 119.545 RLU
Lowest concentration with significantly increased fluorescence vs empty vector (p < 0.01)
  Activation threshold concentration TAS2R4: 1 µM

Reference: article PMC10247784, “Physiological activation of human and mouse bitter taste receptors by bile acids” (Communications Biology, 2023)
